Experimental data published in US8129371B2, “Thienopyrimidine and pyrazolopyrimidine compounds and their use as mTOR kinase and PI3 kinase inhibitors” (Wyeth LLC, priority 2007, dated 2012).
Read-outs that look alike come from different tables or passages of the source.

Experiments:
Human mTOR (FLAG-TOR) = molecular target: T1, Human mTOR (FLAG-TOR) (Homo sapiens, UniProt P42345); assay: Human mTOR kinase assay with purified enzyme, DELFIA format; assay type: biochemical
T1 construct: FLAG
Procedure, shortened: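 DELFIA readout: Eu-anti-P(T389)-S6K antibody (40 ng/mL, 1 h) on captured His6-S6K from the stopped reaction. Kinase step used purified FLAG-tagged human mTOR with test compound in HEPES (pH 7.4)/MnCl2/DTT buffer, 2 h at room temperature (linear 1–6 h), terminated by EDTA/EGTA.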

PI3K [1] = molecular target: T2, PI3K (Homo sapiens, UniProt P42336); assay: Fluorescence polarization assay for PI3K; assay type: biochemical; conditions: read-out: PI3 Kinase α IC50
T2 construct: PI3 Kinase α IC50; other: PI3 Kinase α; other: PI3 Kinase α isoform, fluorescence polarization
T2 sequence (P42336 whole entry, canonical isoform): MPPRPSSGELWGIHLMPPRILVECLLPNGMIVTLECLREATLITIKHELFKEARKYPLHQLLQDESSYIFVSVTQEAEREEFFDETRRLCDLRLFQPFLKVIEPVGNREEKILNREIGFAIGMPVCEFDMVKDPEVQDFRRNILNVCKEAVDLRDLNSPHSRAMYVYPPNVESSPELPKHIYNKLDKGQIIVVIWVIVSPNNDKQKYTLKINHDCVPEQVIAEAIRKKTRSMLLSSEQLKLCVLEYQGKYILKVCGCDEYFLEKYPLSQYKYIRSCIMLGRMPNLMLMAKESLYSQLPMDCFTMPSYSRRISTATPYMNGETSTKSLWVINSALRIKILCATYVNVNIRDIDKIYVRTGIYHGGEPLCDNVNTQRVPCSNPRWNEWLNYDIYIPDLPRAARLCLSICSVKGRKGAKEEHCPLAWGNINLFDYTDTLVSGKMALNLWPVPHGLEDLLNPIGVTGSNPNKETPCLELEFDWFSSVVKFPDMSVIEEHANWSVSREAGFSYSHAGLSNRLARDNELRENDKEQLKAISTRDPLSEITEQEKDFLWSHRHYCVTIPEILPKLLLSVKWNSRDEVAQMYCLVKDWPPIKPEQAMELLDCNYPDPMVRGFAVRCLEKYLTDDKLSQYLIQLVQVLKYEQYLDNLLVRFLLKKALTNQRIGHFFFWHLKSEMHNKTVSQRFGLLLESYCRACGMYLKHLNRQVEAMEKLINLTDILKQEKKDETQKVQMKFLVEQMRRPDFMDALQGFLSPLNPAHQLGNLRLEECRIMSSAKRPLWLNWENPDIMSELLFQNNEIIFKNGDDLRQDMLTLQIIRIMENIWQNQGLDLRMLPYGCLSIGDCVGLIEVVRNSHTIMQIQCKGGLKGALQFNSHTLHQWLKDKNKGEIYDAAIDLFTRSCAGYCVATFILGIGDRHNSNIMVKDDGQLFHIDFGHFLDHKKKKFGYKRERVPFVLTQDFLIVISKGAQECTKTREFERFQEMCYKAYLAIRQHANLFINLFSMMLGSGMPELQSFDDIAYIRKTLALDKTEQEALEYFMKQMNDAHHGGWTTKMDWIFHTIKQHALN
Procedure, shortened: (§1)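 Fluorescence-polarization competition readout: after 30–60 min of PIP2/ATP turnover in 1% DMSO, a stop mix with GST-GRP (70 nM) and red probe (10 nM) was added.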

PI3K [2] = molecular target: T3, PI3K (Homo sapiens, UniProt P48736); assay: Fluorescence polarization assay for PI3K; assay type: biochemical; conditions: read-out: PI3 Kinase γ IC50
T3 construct: PI3 Kinase γ IC50; other: PI3 Kinase γ; other: PI3 Kinase γ isoform, fluorescence polarization
T3 sequence (P48736 whole entry, canonical isoform): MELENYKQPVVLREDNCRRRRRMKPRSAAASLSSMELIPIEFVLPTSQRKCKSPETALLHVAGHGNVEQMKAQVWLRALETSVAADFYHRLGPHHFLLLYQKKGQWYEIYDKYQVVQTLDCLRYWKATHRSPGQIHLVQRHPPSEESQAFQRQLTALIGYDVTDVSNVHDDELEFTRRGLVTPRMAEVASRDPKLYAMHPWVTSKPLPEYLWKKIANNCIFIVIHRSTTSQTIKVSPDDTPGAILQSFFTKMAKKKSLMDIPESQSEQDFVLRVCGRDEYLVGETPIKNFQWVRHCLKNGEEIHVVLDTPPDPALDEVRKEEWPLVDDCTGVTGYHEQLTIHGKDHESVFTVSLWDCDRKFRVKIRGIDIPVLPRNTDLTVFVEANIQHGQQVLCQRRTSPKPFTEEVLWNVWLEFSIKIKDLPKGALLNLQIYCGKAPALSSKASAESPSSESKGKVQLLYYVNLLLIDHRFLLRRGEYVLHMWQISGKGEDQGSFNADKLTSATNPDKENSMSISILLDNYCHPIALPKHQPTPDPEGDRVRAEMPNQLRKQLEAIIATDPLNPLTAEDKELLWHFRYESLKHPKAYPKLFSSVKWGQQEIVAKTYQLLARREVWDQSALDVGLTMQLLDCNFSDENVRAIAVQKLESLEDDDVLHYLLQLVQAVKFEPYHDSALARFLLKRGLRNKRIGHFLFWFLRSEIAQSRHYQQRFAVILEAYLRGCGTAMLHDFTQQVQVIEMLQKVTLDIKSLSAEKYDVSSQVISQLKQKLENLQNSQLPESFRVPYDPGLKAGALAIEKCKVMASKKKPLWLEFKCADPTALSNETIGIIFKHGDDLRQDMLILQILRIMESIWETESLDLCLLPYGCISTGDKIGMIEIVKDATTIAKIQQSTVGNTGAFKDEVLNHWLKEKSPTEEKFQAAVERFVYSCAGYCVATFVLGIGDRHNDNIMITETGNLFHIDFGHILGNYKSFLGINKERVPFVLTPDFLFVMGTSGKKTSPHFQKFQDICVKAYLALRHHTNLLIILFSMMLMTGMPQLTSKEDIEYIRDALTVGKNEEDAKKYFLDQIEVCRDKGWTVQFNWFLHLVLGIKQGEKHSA
Procedure, shortened: as §1

prostate line LNCap = assay: In vitro cell culture growth assay (MTS), LNCap; assay type: cell-based; conditions: Homo sapiens, LNCaP, 72 h, LNCap cells, three days after drug treatment
Procedure, shortened: (§2)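 Viable cell density is assessed three days after inhibitor addition via MTS conversion, normalised to vehicle-treated cells.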

breast line MDA468 = assay: In vitro cell culture growth assay (MTS), MDA468; assay type: cell-based; conditions: Homo sapiens, 72 h, MDA468 cells, three days after drug treatment
Procedure, shortened: as §2

[3] = purified human mTOR enzyme, DELFIA format
[4] = PI3 Kinase α isoform, fluorescence polarization
[5] = PI3 Kinase γ isoform, fluorescence polarization

Row | SMILES | IC50 (Human mTOR (FLAG-TOR)) | IC50 (PI3K [1]; PI3 Kinase α) | IC50 (PI3K [2]; PI3 Kinase γ) | IC50 (prostate line LNCap) | IC50 (Human mTOR (FLAG-TOR); [3]) | IC50 (PI3K [1]; [4]) | IC50 (PI3K [2]; [5]) | IC50 (breast line MDA468)
1 | CN1CCN(c2ccc(NC(=O)Nc3ccc(-c4nc(N5C6CCC5COC6)c5cnn(CC(F)(F)F)c5n4)cc3)cc2)CC1 [Example 270, 1-[4-(4-methylpiperazin-1-yl)phenyl]-3-{4-[4-(3-oxa-8-azabicyclo[3.2.1]oct-8-yl)-1-(2,2,2-trifluoroethyl)-1H-pyrazolo[3,4-d]pyrimidin-6-yl]phenyl}urea] | 0.52 nM | 371 nM | 9500 nM | < 1 nM |  |  |  | 1 nM
2 | OCCNc1ccc(-c2nc(N3CC4CCC(C3)O4)c3cnn(C4CCC5(CC4)OCCO5)c3n2)cc1 [Example 132, 2-({4-[1-(1,4-dioxaspiro[4.5]dec-8-yl)-4-(8-oxa-3-azabicyclo[3.2.1]oct-3-yl)-1H-pyrazolo[3,4-d]pyrimidin-6-yl]phenyl}amino)ethanol] | 15.5 nM | > 10000 nM | > 10000 nM | 580 nM |  |  |  | 5000 nM
3 | CCNC(=O)Nc1ccc(-c2nc(N3CC4CCC(C3)O4)c3cnn(C(COC)COC)c3n2)cc1 [Example 320, 1-ethyl-3-(4-{1-[2-methoxy-1-(methoxymethyl)ethyl]-4-(8-oxa-3-azabicyclo[3.2.1]oct-3-yl)-1H-pyrazolo[3,4-d]pyrimidin-6-yl}phenyl)urea] |  |  |  | 160 nM | 9.1 nM | 1950 nM | > 10000 nM | 590 nM
4 | c1cncc(CN2CCC(n3ncc4c(N5CC6CCC(C5)O6)nc(-c5ccc6[nH]ccc6c5)nc43)CC2)c1 [Example 394, 6-(1H-indol-5-yl)-4-(8-oxa-3-azabicyclo[3.2.1]oct-3-yl)-1-[1-(pyridin-3-ylmethyl)piperidin-4-yl]-1H-pyrazolo[3,4-d]pyrimidine] |  |  |  | 320 nM | 14.5 nM | 2920 nM | 9500 nM | 2000 nM
5 | CN1CCN(c2ccc(NC(=O)Nc3ccc(-c4nc(N5CC6CCC(C5)O6)c5cnn(CCO)c5n4)cc3)cn2)CC1 [Example 205, 1-{4-[1-(2-hydroxyethyl)-4-(8-oxa-3-azabicyclo[3.2.1]oct-3-yl)-1H-pyrazolo[3,4-d]pyrimidin-6-yl]phenyl}-3-[6-(4-methylpiperazin-1-yl)pyridin-3-yl]urea] | 1.7 nM | 202 nM | 3570 nM | 90 nM |  |  |  | 80 nM
6 | CCn1ncc2c(N3CC4CCC(C3)O4)nc(-c3ccc(NC(=O)NCCN4CCOCC4)cc3)nc21 [Example 179, 1-{4-[1-ethyl-4-(8-oxa-3-azabicyclo[3.2.1]oct-3-yl)-1H-pyrazolo[3,4-d]pyrimidin-6-yl]phenyl}-3-(2-morpholin-4-ylethyl)urea] | 66.5 nM | 482 nM | 9980 nM | 1700 nM |  |  |  | 5000 nM
7 | CCn1ncc2c(N3CC4CCC(C3)O4)nc(-c3ccc(NC(=O)NCC(=O)N4CCN(C)CC4)cc3)nc21 [Example 276, 1-{4-[1-ethyl-4-(8-oxa-3-azabicyclo[3.2.1]oct-3-yl)-1H-pyrazolo[3,4-d]pyrimidin-6-yl]phenyl}-3-[2-(4-methylpiperazin-1-yl)-2-oxoethyl]urea] | 93 nM | 3980 nM | 9000 nM | 7500 nM |  |  |  | 30000 nM

The next lines start with results.

Row | IC50 (Human mTOR (FLAG-TOR)) | IC50 (PI3K [1]; PI3 Kinase α) | IC50 (PI3K [2]; PI3 Kinase γ) | IC50 (prostate line LNCap) | IC50 (Human mTOR (FLAG-TOR); [3]) | IC50 (PI3K [1]; [4]) | IC50 (PI3K [2]; [5]) | SMILES | IC50 (breast line MDA468)
8 | 0.122 nM | 40 nM | 2200 nM | < 1 nM |  |  |  | N#CCCn1ncc2c(N3CC4CCC(C3)O4)nc(-c3ccc(NC(=O)Nc4ccc(CO)cc4)cc3)nc21 [Example 218, 1-{4-[1-(2-cyanoethyl)-4-(8-oxa-3-azabicyclo[3.2.1]oct-3-yl)-1H-pyrazolo[3,4-d]pyrimidin-6-yl]phenyl}-3-[4-(hydroxymethyl)phenyl]urea] | < 1 nM
9 | 0.655 nM | 869 nM | > 10000 nM | 4 nM |  |  |  | CN(C)c1ccc(NC(=O)Nc2ccc(-c3nc(N4CC5CCC(C4)O5)c4cnn(CCF)c4n3)cc2)cc1 [Example 242, 1-[4-(dimethylamino)phenyl]-3-{4-[1-(2-fluoroethyl)-4-(8-oxa-3-azabicyclo[3.2.1]oct-3-yl)-1H-pyrazolo[3,4-d]pyrimidin-6-yl]phenyl}urea] | 19 nM
10 |  |  |  | < 1 nM | 0.19 nM | 93 nM | 1140 nM | CN1CCN(c2ccc(NC(=O)Nc3ccc(-c4nc(N5CC6CCC(C5)O6)c5cnn([C@H]6CC[C@H](O)CC6)c5n4)cc3)cc2)CC1 (relative stereo) [Example 404, 1-{4-[1-(trans-4-hydroxycyclohexyl)-4-(8-oxa-3-azabicyclo[3.2.1]oct-3-yl)-1H-pyrazolo[3,4-d]pyrimidin-6-yl]phenyl}-3-[4-(4-methylpiperazin-1-yl)phenyl]urea] | 18 nM
11 | 0.22 nM | 5330 nM | > 10000 nM | 9 nM |  |  |  | CCNC(=O)Nc1ccc(-c2nc(N3CC4CCC(C3)O4)c3cnn(C4CCN(C(=O)OC)CC4)c3n2)cc1 [Example 9, methyl 4-[6-{4-[(ethylcarbamoyl)amino]phenyl}-4-(8-oxa-3-azabicyclo[3.2.1]oct-3-yl)-1H-pyrazolo[3,4-d]pyrimidin-1-yl]piperidine-1-carboxylate] | 180 nM
12 | 0.185 nM | 739 nM | > 10000 nM | 1 nM |  |  |  | O=C(Nc1ccc(-c2nc(N3CC4CCC(C3)O4)c3cnn(CCF)c3n2)cc1)Nc1ccc(N2CCOCC2)cc1 [Example 244, 1-{4-[1-(2-fluoroethyl)-4-(8-oxa-3-azabicyclo[3.2.1]oct-3-yl)-1H-pyrazolo[3,4-d]pyrimidin-6-yl]phenyl}-3-(4-morpholin-4-ylphenyl)urea] | 7 nM
13 |  |  |  | 1 nM | 0.125 nM | 270 nM | 4060 nM | O=C(Nc1ccc(-c2nc(N3CC4CCC(C3)O4)c3cnn(C4CCC5(CC4)OCCO5)c3n2)cc1)Nc1cccnc1 [Example 376, 1-{4-[1-(1,4-dioxaspiro[4.5]dec-8-yl)-4-(8-oxa-3-azabicyclo[3.2.1]oct-3-yl)-1H-pyrazolo[3,4-d]pyrimidin-6-yl]phenyl}-3-pyridin-3-ylurea] | 5 nM
14 | 0.33 nM | 3320 nM | 9500 nM | 9 nM |  |  |  | CCOC(=O)N1CCC(n2ncc3c(N4CC5CCC(C4)O5)nc(-c4ccc(NC(=O)NCCF)cc4)nc32)CC1 [Example 32, ethyl 4-[6-(4-{[(2-fluoroethyl)carbamoyl]amino}phenyl)-4-(8-oxa-3-azabicyclo[3.2.1]oct-3-yl)-1H-pyrazolo[3,4-d]pyrimidin-1-yl]piperidine-1-carboxylate] | 210 nM
15 | 0.26 nM | 4580 nM | > 10000 nM | 1 nM |  |  |  | CCNC(=O)Nc1ccc(-c2nc(N3CC4CCC(C3)O4)c3cnn(C4CCC5(CC4)OCCO5)c3n2)cc1 [Example 123, 1-{4-[1-(1,4-dioxaspiro[4.5]dec-8-yl)-4-(8-oxa-3-azabicyclo[3.2.1]oct-3-yl)-1H-pyrazolo[3,4-d]pyrimidin-6-yl]phenyl}-3-ethylurea] | 9 nM
16 | 0.155 nM | 648 nM | 6370 nM | 1 nM |  |  |  | CC(C)n1ncc2c(N3CC4CCC(C3)O4)nc(-c3ccc(NC(=O)NCCF)cc3)nc21 [Example 141, 1-(2-fluoroethyl)-3-{4-[1-isopropyl-4-(8-oxa-3-azabicyclo[3.2.1]oct-3-yl)-1H-pyrazolo[3,4-d]pyrimidin-6-yl]phenyl}urea] | 40 nM
